Experimental data taken from patent US20220211038A1, “COMPOSITION AND METHOD FOR PROTECTING PLANT AGAINST DISEASE AND PEST” (SUMITOMO CHEMICAL COMPANY, LIMITED, priority 2019, published 2022).

How the values were obtained:
[1] = tested on: Septoria leaf blotch (Mycosphaerella graminicola); assay: Growth inhibition of Septoria leaf blotch in YBG medium, microtiter plate, absorbance at 600 nm (Test Example 1); assay type: cell-based; conditions: 18° C., four days
Method: Fluopyram and fluxapyroxad were respectively dissolved in dimethyl sulfoxide, and agent solutions were prepared so that the concentration of each compound was 100 times the concentration described in Table 1. The agent solution was dispensed into each well of a microtiter plate (96 wells) in 1 μl portion, and then 99 μL of YBG medium to which conidia of Septoria leaf blotch (Mycosphaerella graminicola) was inoculated in advance (which was prepared by dissolving 10 g of yeast extract, 10 g of Bacto Peptone, and 20 mL of glycerol into 1 L of water, followed by sterilizing the medium) was dispensed into each of the well to which the agent solution was dispensed. The plate was cultivated at 18° C. for four days, thereby allowing Septoria leaf blotch to undergo proliferation, and the absorbance at 600 nm of a sample in each well of the microtiter plate was then measured to examine a degree of growth of Septoria leaf blotch (hereinafter referred to as “treated group”). Whereas, Septoria leaf blotch was grown similarly to the case of the treated group using dimethyl sulfoxide instead of the agent solution, and the degree of growth was measured (hereinafter referred to as “untreated group”). The efficacy was calculated from each of the obtained degree of growth of the treated group and the untreated group respectively by the following “Equation 1”.
Efficacy (%)=100×(X−Y)/X Equation 1
X: Degree of growth of fungus in the untreated group
Y: Degree of growth of fungus in the treated group

[2] = tested on: powdery mildew (Sphaerotheca fuliginea); assay: Cucumber powdery mildew control, spray on plantlets (Test Example 2); assay type: in vivo; conditions: 10 days
Source text: Fluopyram and fluxapyroxad were respectively mixed with surfactant and crushed in a grinding equipment to obtain a crushed composition. The crushed composition was then mixed with tap water so as to have the compound at the concentration described in Table 2 to obtain spray liquid. The spray liquid was sprayed onto cucumber (Cultivar: Hanjiro Fushinari) plantlet at run-off water volume. Plantlets were then air dried before artificially inoculated by putting the test plantlets in the same room where cucumber with powdery mildew (Sphaerotheca fuliginea) symptoms were grown. The plantlet were grown in the room for 10 days and the degree of disease severity on leaves was measured (hereinafter referred to as “treated group”).
The same operation was carried out […] (hereinafter referred to as “untreated group”).
The controlling value was calculated from each of the obtained degree of disease severity on leaves of the treated group and the untreated group respectively by the following “Equation 2”.
Controlling value (%)=100×(X−Y)/X Equation 2
X: Degree of disease severity on leaves in the untreated group
Y: Degree of disease severity on leaves in the treated group

| Compound | Efficacy (%) ([1]; Fluopyram 0.1 ppm alone) | Efficacy (%) ([1]; Fluopyram 1.75 ppm alone) | Controlling value (%) ([2]; Fluopyram 0.4 mg/L alone) | Controlling value (%) ([2]; Fluopyram 4.0 mg/L alone) | Efficacy (%) ([1]; Fluxapyroxad 0.18 ppm alone) | Efficacy (%) ([1]; Fluxapyroxad 0.5 ppm alone) | Controlling value (%) ([2]; Fluxapyroxad 0.4 mg/L alone) | Controlling value (%) ([2]; Fluxapyroxad 2.0 mg/L alone) |
| --- | --- | --- | --- | --- | --- | --- | --- | --- |
| O=C(NCCc1ncc(C(F)(F)F)cc1Cl)c1ccccc1C(F)(F)F [Fluopyram] | 24% | 60% | 32% | 50% |  |  |  |  |
| Cn1cc(C(=O)Nc2ccccc2-c2cc(F)c(F)c(F)c2)c(C(F)F)n1 [Fluxapyroxad] |  |  |  |  | 71% | 82% | 16% | 34% |
